This note sets out measurements from patent publication US20110077251A1, “NOVEL 17 BETA LUPANE DERIVATIVES” (priority 2009, published 2011).

Like-named read-outs stand apart in the source and are kept apart here. Some results are limits rather than exact numbers.

The test deals with HIVIIIB. Nature of the test: HIV-1 replication in MT2 cell line with 30% human serum (RT activity in supernatant). Conditions: MT2 cells, day 5 after infection, average if tested more than once, read-out: MT2 (HIVIIIB) with human serum IC50 range. It is filed as cell-based. How it is done: HIV-1 Replication in MT2 cell line with and without 30% human serum: The cells are infected at a Multiciplicity of Infection (MOI) of 0.5 for 3 h and then washed twice with complete media to remove residual virus. Cells are then resuspended at 0.5×10^6/ml in complete medium (RPMI, 10% FBS, 1% sodium pyruvate), and seeded into 96-well plates (6.25×10^4/well). The cells are cultured in the presence or absence of various concentrations of test compounds in serial dilutions for 3 days at 37° C. The test compounds are serially diluted in complete medium supplemented or not with 30% human serum. After 3 days, 100 μL of cultured medium with cells are replaced with 120 μL of freshly diluted test compounds in complete medium containing or not 30% Human serum. The level of HIV-1 replication is determined at days 5 after infection by the presence of viral RT activity in harvested supernatant fluid. The IC50 values for the virus replication are determined by using GRAPHPAD PRISM software.
The IC50 of the compounds tested in accordance with the HIV replication activity assay MT2 (HIVIIIB) with or without human serum are represented in Table 6.

The mark [1] stands for this setting: Human immunodeficiency virus 1, 120 h.

What is called IC50 is the midpoint of a concentration-inhibition curve. For `C=C(C)C1CCC2(NCC3CC3)CCC3(C)C(CCC4C5(C)CCC(OC(=O)CC(C)(C)C(=O)O)C(C)(C)C5CCC43C)C12` (stereo not drawn) [Cpd 10-2, 17β-(Cyclopropylmethyl-amino)-3β-O-(3′,3′-dimethylsuccinyl)-28-norlup-20(29)-ene], the IC50 is under 0.199 µM.

As to `C=C(C)[C@@H]1CC[C@]2(NC(=O)c3nnc(C)o3)CC[C@]3(C)[C@H](CC[C@@H]4[C@@]5(C)CC[C@H](OC(=O)CC(C)(C)C(=O)O)C(C)(C)[C@@H]5CC[C@]43C)[C@@H]12` [Cpd 13-12, 3β-O-(3′,3′-Dimethylsuccinyl)-17β-[(5-methyl-[1,3,4]oxadiazole-2-carbonyl)-amino]-28-norlup-20(29)-ene], the IC50 under setting [1] was under 0.199 µM. The same measure, in the same setting: next, `C=C(C)[C@@H]1CC[C@]2(NC(=O)NC(C)(C)c3ccccc3)CC[C@]3(C)[C@H](CC[C@@H]4[C@@]5(C)CC[C@H](OC(=O)CC(C)(C)C(=O)O)C(C)(C)[C@@H]5CC[C@]43C)[C@@H]12` [Cpd 11-28, 3β-O-(3′,3′-Dimethylsuccinyl)-17β-[N′-(1-methyl-1-phenylethyl)-ureido]-28-norlup-20(29)-ene]: under 0.199 µM. For the compound `C=C(C)[C@@H]1CC[C@]2(NC(=O)OC(C)(C)C)CC[C@]3(C)[C@H](CC[C@@H]4[C@@]5(C)CC[C@H](OC(=O)[C@H]6CC[C@@](C)(C(=O)O)C6(C)C)C(C)(C)[C@@H]5CC[C@]43C)[C@@H]12` [Cpd 8-3, 3β-O-[(1′S,3′R)-2′,2′,3′-Trimethyl-cyclopentane-3′-carboxylic acid-1′-carboxyl]-17β-tert-butyloxycarbonylamino-28-norlup-20(29)-ene], under setting [1], the IC50 was over 1 µM. As to `C=C(C)[C@@H]1CC[C@]2(NC(=O)N(C)C)CC[C@]3(C)[C@H](CC[C@@H]4[C@@]5(C)CC[C@H](OC(=O)CC(C)(C)C(=O)O)C(C)(C)[C@@H]5CC[C@]43C)[C@@H]12` [Cpd 11-13, 3β-O-(3′,3′-Dimethylsuccinyl)-17β-(N′,N′-dimethyl-ureido)-28-norlup-20(29)-ene], the IC50 under setting [1] was under 0.199 µM. The same measure, in the same setting: next, `C=C(C)[C@@H]1CC[C@]2(N)CC[C@]3(C)[C@H](CC[C@@H]4[C@@]5(C)CC[C@H](OC(=O)CC(C)(C)C(=O)O)C(C)(C)[C@@H]5CC[C@]43C)[C@@H]12` [Cpd 9-1, 17β-Amino-3β-O-(3′,3′-dimethylsuccinyl)-28-norlup-20(29)-ene]: under 0.199 µM. On the same count and under the same terms, in the case of `C=C(C)[C@@H]1CC[C@]2(NC(=O)N3CCCCC3)CC[C@]3(C)[C@H](CC[C@@H]4[C@@]5(C)CC[C@H](OC(=O)CC(C)(C)C(=O)O)C(C)(C)[C@@H]5CC[C@]43C)[C@@H]12` [Cpd 11-11, 3β-O-(3′,3′-Dimethylsuccinyl)-17β-[(piperidine-1-carbonyl)-amino]-28-norlup-20(29)-ene] it was under 0.199 µM; in that of `C=C(C)[C@@H]1CC[C@]2(NC(=O)c3cscn3)CC[C@]3(C)[C@H](CC[C@@H]4[C@@]5(C)CC[C@H](OC(=O)CC(C)(C)C(=O)O)C(C)(C)[C@@H]5CC[C@]43C)[C@@H]12` [Cpd 13-13, 3β-O-(3′,3′-Dimethylsuccinyl)-17β-[(thiazol-4-ylcarbonyl)-amino]-28-norlup-20(29)-ene], under 0.199 µM; in that of `C=C(C)[C@@H]1CC[C@]2(NC(=O)NCC3CCN(C)CC3)CC[C@]3(C)[C@H](CC[C@@H]4[C@@]5(C)CC[C@H](OC(=O)CC(C)(C)C(=O)O)C(C)(C)[C@@H]5CC[C@]43C)[C@@H]12` [Cpd 11-14, 3β-O-(3′,3′-Dimethylsuccinyl)-17β-[N′-(1-methyl-piperidin-4-ylmethyl)-ureido]-28-norlup-20(29)-ene], under 0.199 µM. Turning to `C=C(C)[C@@H]1CC[C@]2(NC(=O)NC(C)C)CC[C@]3(C)[C@H](CC[C@@H]4[C@@]5(C)CC[C@H](OC(=O)CC(C)(C)C(=O)O)C(C)(C)[C@@H]5CC[C@]43C)[C@@H]12` [Cpd 11-16, 3β-O-(3′,3′-Dimethylsuccinyl)-17β-(N′-isopropyl-ureido)-28-norlup-20(29)-ene], the IC50 under setting [1] was in the range of 0.2 to 0.999 µM. As for `C=C(C)[C@@H]1CC[C@]2(NC(=O)NCC3CCCCC3)CC[C@]3(C)[C@H](CC[C@@H]4[C@@]5(C)CC[C@H](OC(=O)CC(C)(C)C(=O)O)C(C)(C)[C@@H]5CC[C@]43C)[C@@H]12` [Cpd 11-20, 3β-O-(3′,3′-Dimethylsuccinyl)-17β-(N′-cyclohexylmethyl-ureido)-28-norlup-20(29)-ene], under setting [1], the IC50 was under 0.199 µM.

On to `C=C(C)[C@@H]1CC[C@]2(N)CC[C@]3(C)[C@H](CC[C@@H]4[C@@]5(C)CC[C@H](OC(=O)[C@H]6CC[C@@](C)(C(=O)O)C6(C)C)C(C)(C)[C@@H]5CC[C@]43C)[C@@H]12` [Cpd 9-2, 3β-O-[(1′S,3′R)-2′,2′,3′-Trimethyl-cyclopentane-3′-carboxylic acid-1′-carboxyl]-17β-amino-28-norlup-20(29)-ene], for which, under setting [1], the IC50 is under 0.199 µM. In the case of “3β-O-(2′,2′-Dimethylsuccinyl)-17β-tert-butyloxycarbonylamino-28-norlup-20(29)-ene [Cpd 8-2]”, the IC50 is over 1 µM. Regarding `C=C(C)[C@@H]1CC[C@]2(NC(=O)N[C@H](C)c3ccccc3)CC[C@]3(C)[C@H](CC[C@@H]4[C@@]5(C)CC[C@H](OC(=O)CC(C)(C)C(=O)O)C(C)(C)[C@@H]5CC[C@]43C)[C@@H]12` [Cpd 11-27, 3β-O-(3′,3′-Dimethylsuccinyl)-17β-(N′-(R)-1-phenyl-ethyl-ureido)-28-norlup-20(29)-ene], the half-maximal inhibitory concentration (IC50) under setting [1] was under 0.199 µM. The same measure, in the same setting: in the case of `C=C(C)[C@@H]1CC[C@]2(NC(=O)Nc3ccc(F)cc3)CC[C@]3(C)[C@H](CC[C@@H]4[C@@]5(C)CC[C@H](OC(=O)CC(C)(C)C(=O)O)C(C)(C)[C@@H]5CC[C@]43C)[C@@H]12` [Cpd 11-17, 3β-O-(3′,3′-Dimethylsuccinyl)-17β-(N′-4-fluorophenyl-ureido)-28-norlup-20(29)-ene] it was under 0.199 µM.

Turning to `C=C(C)[C@@H]1CC[C@]2(NC(=O)Nc3nnc(C)o3)CC[C@]3(C)[C@H](CC[C@@H]4[C@@]5(C)CC[C@H](OC(=O)CC(C)(C)C(=O)O)C(C)(C)[C@@H]5CC[C@]43C)[C@@H]12` [Cpd 11-15, 3β-O-(3′,3′-Dimethylsuccinyl)-17β-[3-(5-methyl-[1,3,4]oxadiazol-2-yl)-ureido]-28-norlup-20(29)-ene], under setting [1], the half-inhibitory concentration (IC50) is under 0.199 µM.

For the compound `C=C(C)[C@@H]1CC[C@]2(NC(=O)Nc3nccs3)CC[C@]3(C)[C@H](CC[C@@H]4[C@@]5(C)CC[C@H](OC(=O)CC(C)(C)C(=O)O)C(C)(C)[C@@H]5CC[C@]43C)[C@@H]12` [Cpd 11-19, 3β-O-(3′,3′-Dimethylsuccinyl)-17β-(N′-thiazol-2-yl-ureido)-28-norlup-20(29)-ene], the IC50 under setting [1] was under 0.199 µM. Take `C=C(C)[C@@H]1CC[C@]2(NC(=O)NC3CCC(F)(F)CC3)CC[C@]3(C)[C@H](CC[C@@H]4[C@@]5(C)CC[C@H](OC(=O)CC(C)(C)C(=O)O)C(C)(C)[C@@H]5CC[C@]43C)[C@@H]12` [Cpd 11-25, 3β-O-(3′,3′-Dimethylsuccinyl)-17β-(N′-4,4-difluorocyclohexyl-ureido)-28-norlup-20(29)-ene]: the half-maximal inhibitory concentration (IC50) under setting [1] was under 0.199 µM. Still for that read-out and setting: in the case of `C=C(C)[C@@H]1CC[C@]2(NC(=O)N3CCCC3)CC[C@]3(C)[C@H](CC[C@@H]4[C@@]5(C)CC[C@H](OC(=O)CC(C)(C)C(=O)O)C(C)(C)[C@@H]5CC[C@]43C)[C@@H]12` [Cpd 11-29, 3β-O-(3′,3′-Dimethylsuccinyl)-17β-[(pyrrolidine-1-carbonyl)-amino]-28-norlup-20(29)-ene] it was under 0.199 µM; in that of `C=C(C)[C@@H]1CC[C@]2(NC(=O)NC3CCCCC3)CC[C@]3(C)[C@H](CC[C@@H]4[C@@]5(C)CC[C@H](OC(=O)CC(C)(C)C(=O)O)C(C)(C)[C@@H]5CC[C@]43C)[C@@H]12` [Cpd 11-22, 3β-O-(3′,3′-Dimethylsuccinyl)-17β-(N′-cyclohexyl-ureido)-28-norlup-20(29)-ene], under 0.199 µM; in that of `C=C(C)[C@@H]1CC[C@]2(NC(=O)Nc3ccncc3)CC[C@]3(C)[C@H](CC[C@@H]4[C@@]5(C)CC[C@H](OC(=O)CC(C)(C)C(=O)O)C(C)(C)[C@@H]5CC[C@]43C)[C@@H]12` [Cpd 11-26, 3β-O-(3′,3′-Dimethylsuccinyl)-17β-(N′-pyridin-4-yl-ureido)-28-norlup-20(29)-ene], under 0.199 µM.

Consider `C=C(C)[C@@H]1CC[C@]2(NC(=O)N[C@@H](C)c3ccccc3)CC[C@]3(C)[C@H](CC[C@@H]4[C@@]5(C)CC[C@H](OC(=O)CC(C)(C)C(=O)O)C(C)(C)[C@@H]5CC[C@]43C)[C@@H]12` [Cpd 11-23, 3β-O-(3′,3′-Dimethylsuccinyl)-17β-(N′-(S)-1-phenyl-ethyl-ureido)-28-norlup-20(29)-ene], for which the IC50 under setting [1] is under 0.199 µM. On the same count and under the same terms, in the case of `C=C(C)[C@@H]1CC[C@]2(NC(=O)NCc3ccc(F)cc3)CC[C@]3(C)[C@H](CC[C@@H]4[C@@]5(C)CC[C@H](OC(=O)CC(C)(C)C(=O)O)C(C)(C)[C@@H]5CC[C@]43C)[C@@H]12` [Cpd 11-18, 3β-O-(3′,3′-Dimethylsuccinyl)-17β-(N′-4-fluorophenylmethyl-ureido)-28-norlup-20(29)-ene] it was under 0.199 µM.
